Here are results for 5 compounds from patent publication US5384417A, “Heptitols” (priority 1994, dated 1995).

Format in all cases: biochemical
The target of one assay is T1, β-Galactosidase (Homo sapiens, UniProt P16278).
T1 construct: Human liver glycosidases were assayed; from tissue; host or cells: human liver
T1 sequence (P16278 29-677): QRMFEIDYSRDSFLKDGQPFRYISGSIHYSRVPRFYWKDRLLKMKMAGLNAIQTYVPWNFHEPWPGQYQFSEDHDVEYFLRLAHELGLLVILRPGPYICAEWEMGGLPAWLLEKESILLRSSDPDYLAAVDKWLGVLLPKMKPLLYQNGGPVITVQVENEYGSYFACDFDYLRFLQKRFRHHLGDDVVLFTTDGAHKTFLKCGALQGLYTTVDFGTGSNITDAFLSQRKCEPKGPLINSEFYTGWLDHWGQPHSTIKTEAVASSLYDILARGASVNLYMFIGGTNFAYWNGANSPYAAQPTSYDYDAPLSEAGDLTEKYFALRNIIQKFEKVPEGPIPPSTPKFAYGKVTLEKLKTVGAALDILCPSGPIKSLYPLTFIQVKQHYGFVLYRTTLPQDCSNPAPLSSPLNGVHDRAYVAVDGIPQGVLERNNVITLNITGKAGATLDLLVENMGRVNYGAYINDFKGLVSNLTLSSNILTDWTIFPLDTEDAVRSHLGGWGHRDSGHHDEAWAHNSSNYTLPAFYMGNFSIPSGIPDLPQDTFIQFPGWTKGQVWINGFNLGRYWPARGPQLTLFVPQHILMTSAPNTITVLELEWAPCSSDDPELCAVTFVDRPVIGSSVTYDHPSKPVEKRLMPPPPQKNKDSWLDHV
In words: inhibition of human liver β-galactosidase. Particulars: 1 mM inhibitor; read-out: % Inhibition of Glycosidase Activity, β-Galactosidase. As to the method:
(§1) Human liver glycosidases were assayed in the absence and presence [1 mM] of each of the potential inhibitors, using the appropriate buffered 4-methylumbelliferyl glycosides as substrates, as previously described.^17 See Table I, below.

The next assay concerns α-Arabinosidase. Put plainly: inhibition of human liver α-arabinosidase. Particulars: 1 mM inhibitor. The protocol: as §1
A further assay concerns the target T2, β-Glucuronidase (Homo sapiens, UniProt P08236).
T2 construct: Human liver glycosidases were assayed; from tissue; host or cells: human liver
T2 sequence (P08236 23-633 limits assumed): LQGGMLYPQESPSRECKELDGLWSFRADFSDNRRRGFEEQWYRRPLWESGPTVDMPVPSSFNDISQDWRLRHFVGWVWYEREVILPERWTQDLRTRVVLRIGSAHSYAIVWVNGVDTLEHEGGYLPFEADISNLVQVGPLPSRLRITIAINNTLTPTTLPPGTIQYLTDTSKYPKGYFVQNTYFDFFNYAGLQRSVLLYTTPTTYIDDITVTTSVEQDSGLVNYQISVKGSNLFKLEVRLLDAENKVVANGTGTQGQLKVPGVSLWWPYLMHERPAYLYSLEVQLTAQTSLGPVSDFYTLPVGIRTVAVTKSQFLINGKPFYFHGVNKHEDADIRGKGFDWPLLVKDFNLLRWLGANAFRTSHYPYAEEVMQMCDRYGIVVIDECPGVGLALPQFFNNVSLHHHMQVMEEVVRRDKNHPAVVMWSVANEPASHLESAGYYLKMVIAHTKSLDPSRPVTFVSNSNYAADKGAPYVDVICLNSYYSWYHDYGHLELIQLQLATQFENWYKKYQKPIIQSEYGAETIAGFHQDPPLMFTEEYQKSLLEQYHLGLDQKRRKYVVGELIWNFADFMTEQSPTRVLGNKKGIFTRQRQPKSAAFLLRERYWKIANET
In words: inhibition of human liver β-glucuronidase. Particulars: read-out: % Inhibition of Glycosidase Activity, β-Glucuronidase. The protocol: as §1

The target in the next assay is T3, Neutral α-Mannosidase (Homo sapiens, UniProt Q9NTJ4).
T3 construct: Human liver glycosidases were assayed; from tissue; host or cells: human liver
T3 sequence (Q9NTJ4 1-1040): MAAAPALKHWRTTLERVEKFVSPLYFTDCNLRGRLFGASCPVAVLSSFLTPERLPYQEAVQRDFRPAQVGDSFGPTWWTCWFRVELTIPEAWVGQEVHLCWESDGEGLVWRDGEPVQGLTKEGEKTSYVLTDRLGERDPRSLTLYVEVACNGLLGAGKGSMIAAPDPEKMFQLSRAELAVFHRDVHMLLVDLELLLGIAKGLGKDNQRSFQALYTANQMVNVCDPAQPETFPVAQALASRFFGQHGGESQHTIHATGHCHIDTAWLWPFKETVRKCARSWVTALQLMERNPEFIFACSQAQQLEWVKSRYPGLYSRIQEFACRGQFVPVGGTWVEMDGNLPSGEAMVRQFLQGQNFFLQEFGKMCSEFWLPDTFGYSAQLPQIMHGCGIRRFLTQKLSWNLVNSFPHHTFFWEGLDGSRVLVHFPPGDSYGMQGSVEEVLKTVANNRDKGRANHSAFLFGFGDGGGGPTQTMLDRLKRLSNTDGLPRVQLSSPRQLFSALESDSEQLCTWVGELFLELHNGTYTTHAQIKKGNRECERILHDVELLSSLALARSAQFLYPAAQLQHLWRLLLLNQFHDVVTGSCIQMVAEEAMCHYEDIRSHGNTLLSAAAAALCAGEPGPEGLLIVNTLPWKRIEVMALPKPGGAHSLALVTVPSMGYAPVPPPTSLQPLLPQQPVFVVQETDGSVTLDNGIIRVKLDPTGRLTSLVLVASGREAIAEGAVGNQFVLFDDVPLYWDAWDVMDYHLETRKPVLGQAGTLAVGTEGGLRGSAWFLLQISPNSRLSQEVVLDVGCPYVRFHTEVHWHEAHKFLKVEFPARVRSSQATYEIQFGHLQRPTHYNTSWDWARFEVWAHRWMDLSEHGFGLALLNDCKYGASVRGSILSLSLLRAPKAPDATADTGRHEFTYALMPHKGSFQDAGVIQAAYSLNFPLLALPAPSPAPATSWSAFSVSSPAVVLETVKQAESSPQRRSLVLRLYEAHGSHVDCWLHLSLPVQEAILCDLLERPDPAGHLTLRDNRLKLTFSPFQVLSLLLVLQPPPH
In words: inhibition of human liver neutral α-mannosidase. Particulars: for inhibition at 1000 µM: 1 mM inhibitor, read-out: % Inhibition of Glycosidase Activity, α-Mannosidase Neutral. The protocol: as §1

The subject of another assay is β-Glucosidase. In words: inhibition of human liver β-glucosidase. Particulars: 1 mM inhibitor. The protocol: as §1

Usually inhibition stands for how much of the control response was suppressed.

Like-named read-outs stand apart in the source and are kept apart here.

Consider `OC[C@@H](O)[C@H]1NC[C@@H](O)[C@H]1O` [DIM (3)], for which the inhibition at 1000 µM on β-Galactosidase worked out at 76%; at β-Glucuronidase (1 mM inhibitor), 9%; at Neutral α-Mannosidase, 89%. Besides, the “% Inhibition of Glycosidase Activity, α-Arabinosidase” value (“% Inhibition … α-Arabinosidase” below) in the assay with α-Arabinosidase is 66%. In the assay on β-Glucosidase, the “% Inhibition of Glycosidase Activity, β-Glucosidase” value (“% Inhibition … β-Glucosidase” below) was 16%.

Regarding `OC[C@H]1NC[C@@H](O)[C@@H](O)[C@@H]1O` [DMJ (1), deoxymannojirimycin], the “% Inhibition … α-Arabinosidase” value in the assay with α-Arabinosidase is 5%. For the same compound, the inhibition at 1000 µM at β-Glucuronidase worked out at 53%; at Neutral α-Mannosidase, 30%. Besides, the “% Inhibition … β-Glucosidase” value with β-Glucosidase is 0%.

As to `NC[C@H]1O[C@H]([C@H](O)CO)[C@H](O)[C@@H]1O` [Manhepamine (5), 1-amino-2,5-anhydro-1-deoxy-D-glycero-D-talo-heptitol], the values for the inhibition at 1000 µM on β-Galactosidase, on β-Glucuronidase (1 mM inhibitor) and at Neutral α-Mannosidase were 0%, 7% and 2%, respectively. Besides, the “% Inhibition … α-Arabinosidase” value with α-Arabinosidase amounted to 0%. In addition, the “% Inhibition … β-Glucosidase” value with β-Glucosidase is 14%.

Regarding `OC[C@@H](O)[C@H]1N[C@H](CO)[C@@H](O)[C@H]1O` [αHomoDIM (4), 2,5-dideoxy-2,5-imino-D-glycero-D-talo-heptitol], the figures for the inhibition at 1000 µM on β-Galactosidase, at β-Glucuronidase (1 mM inhibitor) and on Neutral α-Mannosidase were 35%, 0% and 76%, respectively. The “% Inhibition … α-Arabinosidase” value in the assay with α-Arabinosidase was 25%. Besides, the “inhibition of neutral α-mannosidase (in words)” value against Neutral α-Mannosidase (compared with DIM (3)) was “decreases the inhibition of the lysosomal and neutral enzymes”. Also, the “% Inhibition … β-Glucosidase” value in the assay with β-Glucosidase is on record as 23%.

As to `OC[C@H]1N[C@H](CO)[C@@H](O)C(O)[C@@H]1O` (stereo partly shown) [αHomoDMJ (2)], the inhibition at 1000 µM is 0% at β-Galactosidase, 0% on β-Glucuronidase (1 mM inhibitor) and 33% on Neutral α-Mannosidase. For the same compound, the “% Inhibition … α-Arabinosidase” value in the assay on α-Arabinosidase was 0%. The “% Inhibition … β-Glucosidase” value with β-Glucosidase was determined as 0%.
